The supplement of paper PMC10307832

Legend:
Assay in all cases: relative viability (nuclei count vs DMSO), 5 days (fraction); higher = more cells survive
Pemetrexed + Linsitinib = compound: Nc1nc2[nH]cc(CCc3ccc(C(=O)N[C@@H](CCC(=O)O)C(=O)O)cc3)c2c(=O)[nH]1 [Pemetrexed] + C[C@]1(O)C[C@@H](c2nc(-c3ccc4ccc(-c5ccccc5)nc4c3)c3c(N)nccn32)C1 [Linsitinib] (partner 1 µM)
Summary of the method: (§1)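 Relative viability was taken as the ratio of nuclei in treated wells to nuclei in vehicle wells. Lung cancer cell lines in 1536-well plates received compounds by pin tool one day after seeding, either one drug alone or a fixed anchor-drug dose plus five library-drug doses (not always all listed) in √10 steps. Nuclei were counted on 4× images after 5 days of treatment, and values are medians of duplicate plates.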

Pemetrexed + Tozasertib = compound: Nc1nc2[nH]cc(CCc3ccc(C(=O)N[C@@H](CCC(=O)O)C(=O)O)cc3)c2c(=O)[nH]1 [Pemetrexed] + Cc1cc(Nc2cc(N3CCN(C)CC3)nc(Sc3ccc(NC(=O)C4CC4)cc3)n2)n[nH]1 [Tozasertib] (partner 0.1 µM)
Summary of the method: as §1

Pemetrexed + Alpelisib = compound: Nc1nc2[nH]cc(CCc3ccc(C(=O)N[C@@H](CCC(=O)O)C(=O)O)cc3)c2c(=O)[nH]1 [Pemetrexed] + Cc1nc(NC(=O)N2CCC[C@H]2C(N)=O)sc1-c1ccnc(C(C)(C)C(F)(F)F)c1 [Alpelisib] (partner 2 µM)
Summary of the method: as §1

Idelalisib + Navitoclax = compound: CC[C@H](Nc1ncnc2[nH]cnc12)c1nc2cccc(F)c2c(=O)n1-c1ccccc1 [Idelalisib] + CC1(C)CCC(c2ccc(Cl)cc2)=C(CN2CCN(c3ccc(C(=O)NS(=O)(=O)c4ccc(N[C@H](CCN5CCOCC5)CSc5ccccc5)c(S(=O)(=O)C(F)(F)F)c4)cc3)CC2)C1 [Navitoclax] (partner 0.5 µM)
Summary of the method: as §1

Cell Line: UMC-11
- relative viability (Pemetrexed + Linsitinib; first compound 0.002 µM): 0.836
- relative viability (Pemetrexed + Linsitinib; first compound 0.006325 µM): 1.03
- relative viability (Pemetrexed + Linsitinib; first compound 0.02 µM): 1.08
- relative viability (Pemetrexed + Linsitinib; first compound 0.06325 µM): 0.985
- relative viability (Pemetrexed + Linsitinib; first compound 0.2 µM): 0.903
- relative viability (Pemetrexed + Tozasertib; first compound 0.002 µM): 0.196
- relative viability (Pemetrexed + Tozasertib; first compound 0.006325 µM): 0.217
- relative viability (Pemetrexed + Tozasertib; first compound 0.02 µM): 0.199
- relative viability (Pemetrexed + Tozasertib; first compound 0.06325 µM): 0.202
- relative viability (Pemetrexed + Tozasertib; first compound 0.2 µM): 0.208
- relative viability (Pemetrexed + Alpelisib; first compound 0.002 µM): 1.04
- relative viability (Pemetrexed + Alpelisib; first compound 0.006325 µM): 1.03
- relative viability (Pemetrexed + Alpelisib; first compound 0.02 µM): 1
- relative viability (Pemetrexed + Alpelisib; first compound 0.06325 µM): 1.03
- relative viability (Pemetrexed + Alpelisib; first compound 0.2 µM): 0.829
- relative viability (Idelalisib + Navitoclax; first compound 0.04 µM): 0.366
- relative viability (Idelalisib + Navitoclax; first compound 0.1265 µM): 0.326
- relative viability (Idelalisib + Navitoclax; first compound 0.4 µM): 0.274
- relative viability (Idelalisib + Navitoclax; first compound 1.265 µM): 0.291
- relative viability (Idelalisib + Navitoclax; first compound 4 µM): 0.336
